Test results taken from PubChem BioAssay AID2060604 (Molecular Pharmacology Branch, DTP, NCI, 2025).
Values joined by “and” are separate entries in the source; they are usually repeats but may differ in a detail not shown here. Identical values can stand only once. One block for each compound: values may come before it.

System: 379773-124-R-J2-PDC complex spheroids, viability % test/control
Assay: Anticancer human tumor 379773-124-R-J2-PDC patient-derived endometrial carcinoma cell line growth inhibition [CLK]
Details: for viability, T/C: stronger effect = lower value
In short: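 Multi-cell-type spheroids combined patient-derived tumor cells with HUVEC endothelial cells and human mesenchymal stem cells. Paired agents were dosed in half-log steps down from about clinical Cmax, or from 10 microM where Cmax was unknown.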

[1] = curve of first compound, second compound 0.0316 µM
[2] = curve of first compound, second compound 0.1 µM
[3] = curve of first compound, second compound 0.316 µM
[4] = curve of first compound, second compound 1 µM
[5] = curve of first compound, second compound 3.16 µM
[6] = curve of first compound, second compound 10 µM
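Further: compound exposure lasted seven days before the viability readout.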
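Wherever viability, T/C is given: 100% = DMSO vehicle control wells.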

- IC50 [1]: 38.6 nM
- IC50 [2]: < 9.49 nM
- IC50 [3]: < 9.49 nM
- IC50 [4]: < 9.49 nM
- IC50 [5]: < 9.49 nM
- IC50 [6]: < 9.49 nM
SMILES: NC(=O)C(=Cn1cnc(-c2cc(C(F)(F)F)cc(C(F)(F)F)c2)n1)c1cncnc1 + CNC(=O)c1ccc(Nc2nc(OC3CCCC3)c3c(-c4ccc5nc(C)oc5c4)c[nH]c3n2)c(OC)c1
- viability, T/C (second compound 0.0316 µM, first compound 0.00949 µM): 72.8%
- viability, T/C (second compound 0.0316 µM, first compound 0.03 µM): 57.6%
- viability, T/C (second compound 0.0316 µM, first compound 0.0949 µM): 25.4%
- viability, T/C (second compound 0.0316 µM, first compound 0.3 µM): 12.7%
- viability, T/C (second compound 0.0316 µM, first compound 0.949 µM): 7.15%
- viability, T/C (second compound 0.0316 µM, first compound 3 µM): 2.1%
- viability, T/C (second compound 0.1 µM, first compound 0.00949 µM): 32.3%
- viability, T/C (second compound 0.1 µM, first compound 0.03 µM): 29.7%
- viability, T/C (second compound 0.1 µM, first compound 0.0949 µM): 21.4%
- viability, T/C (second compound 0.1 µM, first compound 0.3 µM): 12.4%
- viability, T/C (second compound 0.1 µM, first compound 0.949 µM): 6.65%
- viability, T/C (second compound 0.1 µM, first compound 3 µM): 2.59%
- viability, T/C (second compound 0.316 µM, first compound 0.00949 µM): 36.7%
- viability, T/C (second compound 0.316 µM, first compound 0.03 µM): 32.8%
- viability, T/C (second compound 0.316 µM, first compound 0.0949 µM): 23.8%
- viability, T/C (second compound 0.316 µM, first compound 0.3 µM): 12%
- viability, T/C (second compound 0.316 µM, first compound 0.949 µM): 5.08%
- viability, T/C (second compound 0.316 µM, first compound 3 µM): 1.7%
- viability, T/C (second compound 1 µM, first compound 0.00949 µM): 31.9%
- viability, T/C (second compound 1 µM, first compound 0.03 µM): 32.6%
- viability, T/C (second compound 1 µM, first compound 0.0949 µM): 20.9%
- viability, T/C (second compound 1 µM, first compound 0.3 µM): 10.4%
- viability, T/C (second compound 1 µM, first compound 0.949 µM): 3.69%
- viability, T/C (second compound 1 µM, first compound 3 µM): 0.49%
- viability, T/C (second compound 3.16 µM, first compound 0.00949 µM): 30.1%
- viability, T/C (second compound 3.16 µM, first compound 0.03 µM): 34.9%
- viability, T/C (second compound 3.16 µM, first compound 0.0949 µM): 18.2%
- viability, T/C (second compound 3.16 µM, first compound 0.3 µM): 7.24%
- viability, T/C (second compound 3.16 µM, first compound 0.949 µM): 2.43%
- viability, T/C (second compound 3.16 µM, first compound 3 µM): 0.24%
- viability, T/C (second compound 10 µM, first compound 0.00949 µM): 37.7%
- viability, T/C (second compound 10 µM, first compound 0.03 µM): 26.8%
- viability, T/C (second compound 10 µM, first compound 0.0949 µM): 14.3%
- viability, T/C (second compound 10 µM, first compound 0.3 µM): 7.07%
- viability, T/C (second compound 10 µM, first compound 0.949 µM): 2.12%
- viability, T/C (second compound 10 µM, first compound 3 µM): 0.82%

- IC50 (curve of compound): > 10000 nM
SMILES: CC(CO)NC(=O)c1cc(-c2ccc(Cl)cc2)nn(-c2cnn(C)c2)c1=O (stereo unspecified)
- viability, T/C (compound 0.0316 µM): 98.9% and 90.2%
- viability, T/C (compound 0.1 µM): 83.6% and 92.8%
- viability, T/C (compound 0.316 µM): 84.6% and 97.6%
- viability, T/C (compound 1 µM): 68% and 85.8%
- viability, T/C (compound 3.16 µM): 88.3% and 95.1%
- viability, T/C (compound 10 µM): 72.3% and 68.5%

- IC50 [1]: < 31.6 nM
- IC50 [2]: < 31.6 nM
- IC50 [3]: < 31.6 nM
- IC50 [4]: < 31.6 nM
- IC50 [5]: < 31.6 nM
- IC50 [6]: < 31.6 nM
SMILES: Nc1ccn(C2OC(CO)C(O)C2(F)F)c(=O)n1 (stereo unspecified) + CNC(=O)c1ccc(Nc2nc(OC3CCCC3)c3c(-c4ccc5nc(C)oc5c4)c[nH]c3n2)c(OC)c1
- viability, T/C (second compound 0.0316 µM, first compound 0.0316 µM): 6.55%
- viability, T/C (second compound 0.0316 µM, first compound 0.1 µM): 3.76%
- viability, T/C (second compound 0.0316 µM, first compound 0.316 µM): 4.74%
- viability, T/C (second compound 0.0316 µM, first compound 1 µM): 5.45%
- viability, T/C (second compound 0.0316 µM, first compound 3.16 µM): 5.63%
- viability, T/C (second compound 0.0316 µM, first compound 10 µM): 3.43%
- viability, T/C (second compound 0.1 µM, first compound 0.0316 µM): 7.18%
- viability, T/C (second compound 0.1 µM, first compound 0.1 µM): 4.04%
- viability, T/C (second compound 0.1 µM, first compound 0.316 µM): 4.89%
- viability, T/C (second compound 0.1 µM, first compound 1 µM): 3%
- viability, T/C (second compound 0.1 µM, first compound 3.16 µM): 4.22%
- viability, T/C (second compound 0.1 µM, first compound 10 µM): 2.03%
- viability, T/C (second compound 0.316 µM, first compound 0.0316 µM): 6.96%
- viability, T/C (second compound 0.316 µM, first compound 0.1 µM): 5.27%
- viability, T/C (second compound 0.316 µM, first compound 0.316 µM): 3.29%
- viability, T/C (second compound 0.316 µM, first compound 1 µM): 3.59%
- viability, T/C (second compound 0.316 µM, first compound 3.16 µM): 3.28%
- viability, T/C (second compound 0.316 µM, first compound 10 µM): 2.14%
- viability, T/C (second compound 1 µM, first compound 0.0316 µM): 12.8%
- viability, T/C (second compound 1 µM, first compound 0.1 µM): 6.01%
- viability, T/C (second compound 1 µM, first compound 0.316 µM): 3.29%
- viability, T/C (second compound 1 µM, first compound 1 µM): 2.77%
- viability, T/C (second compound 1 µM, first compound 3.16 µM): 3.38%
- viability, T/C (second compound 1 µM, first compound 10 µM): 1.2%
- viability, T/C (second compound 3.16 µM, first compound 0.0316 µM): 13.6%
- viability, T/C (second compound 3.16 µM, first compound 0.1 µM): 6.51%
- viability, T/C (second compound 3.16 µM, first compound 0.316 µM): 2.77%
- viability, T/C (second compound 3.16 µM, first compound 1 µM): 2.75%
- viability, T/C (second compound 3.16 µM, first compound 3.16 µM): 2.62%
- viability, T/C (second compound 3.16 µM, first compound 10 µM): 0.99%
- viability, T/C (second compound 10 µM, first compound 0.0316 µM): 13.8%
- viability, T/C (second compound 10 µM, first compound 0.1 µM): 8.14%
- viability, T/C (second compound 10 µM, first compound 0.316 µM): 4.09%
- viability, T/C (second compound 10 µM, first compound 1 µM): 2.72%
- viability, T/C (second compound 10 µM, first compound 3.16 µM): 3.57%
- viability, T/C (second compound 10 µM, first compound 10 µM): 1.76%
